Measurements from US20260055061A1, “HALOPHTHALIMIDE COMPOUNDS AND METHODS OF USE AGAINST TBI, INFLAMMATORY DISORDER, AUTOIMMUNE DISORDER, NEURODEGENERATIVE DISEASE OR VIRAL INFECTION” (The United States of America, as represented by the …, priority 2022, published 2026).

Legend:
CCI-induced TBI mice [1] = test: CCI mouse model of TBI: Iba1 microglia / GFAP astrocyte immunofluorescence (MotiQ); assay type: in vivo
Method: (§1) In vivo model of TBI: Mice were anesthetized with 2.5% tribromoethanol (Avertin: 250 mg/kg; Sigma, St. Louis, MO, USA) and placed in a stereotaxic frame (Kopf Instruments, Tujunga, CA, USA). A 4 mm craniotomy was performed using sterile procedures; the craniotomy point was selected midway between the lambda and bregma sutures and laterally midway between the central suture and the temporalis muscle. The skull fragment was then carefully removed without disruption of the underlying dura. Prior to injury induction, the tip of the impactor was angled and kept perpendicular to the exposed cortical surface. The mouse CCI instrument consisted of an electromagnetic impactor, Impact One (Leica Biosystems Inc., Buffalo Grove, IL, USA) that allows independent alteration of injury severity by controlling contact velocity and the level of cortical deformation. In these experiments, the contact velocity was set at 5.0 m/sec, the dwell time was set at 0.2 s and the deformation depth was set at 2 mm to produce a moderate TBI. The injury site was allowed to dry prior to suturing the wound. During surgery and recovery, the body temperature of the animals was maintained at 36-37° C. by using a heating pad. […] Mice were randomized following CCI to treatment with either of two doses of TFBP (16.25 mg/kg and 32.5 mg/kg, i.p.) or saline, and were dosed at 1 and 24 hr after the injury.
Tissue processing: Two weeks after injury, mice were deeply anesthetized with isoflurane and perfused transcardially with 30 ml phosphate buffered saline (PBS). After removal, the brain was post-fixed with 4% PFA overnight then transferred to a 30% sucrose solution in PBS. Coronal sections from the dorsal hippocampus and the posterior parietal cortex were cryosectioned at 25 μm thickness and stored in cryoprotectant solution for Giemsa staining and immunohistochemical analysis.
Immunofluorescence analysis: For GFAP and Iba1 quantification, brain samples were incubated overnight with either one of the following primary antibodies: anti-GFAP 1:2500 dilution (chicken polyclonal, Abcam, USA, cat #ab4674) or anti-Iba1 1:200 dilution (guinea pig polyclonal anti-Iba1, Synaptic System, USA, cat #234004). After PBS washing, sections were incubated for 1 hr at RT with a goat anti-chicken AlexaFluor® 488-conjugated secondary antibody IgY (H+L) 1:500 dilution (ThermoFisher, USA, cat #A-21432) for detection of GFAP, and with a Goat anti-Guinea Pig IgG (H+L) Highly Cross-Adsorbed Secondary Antibody, Alexa Fluor™ 555, ThermoFisher, USA, cat #A-21435) for detection of Iba1. Sections were washed in PBS and mounted with […]® Antifade Mounting Medium with DAPI (Vectorlabs, USA, cat #H-1200). Controls consisted of omission of the primary antibody. […] Multiple parameters were analyzed, including ramification index, spanned area, number of branches, junctions and endpoints.
In Vivo Model of TBI: TBI studies were conducted in 8-week-old male C57/BL6 mice (25-30 g; n=20), Jackson Laboratory, Bar Harbor, Maine USA. Mice were randomly assigned to four groups prior surgery, CMC+Sham, CMC+TBI, compound 30 (Low dose (LD), 14.78 mg/kg, prepared in 1% CMC in PBS)+TBI, compound 30 (High dose (HD), 29.57 mg/kg)+TBI, and evaluated the effects of compound 30 on TBI. Mice were assessed for gait function and motor coordination, balance function. Animals were subsequently evaluated for cellular changes using histological and immunohistochemistry staining. […]

IL-5 = test: LPS model of inflammation in rats: IL-5 in plasma and cortex; assay type: in vivo, rat; details: both doses; LPS-challenged rats
CCI-induced TBI mice [2] = test: Controlled cortical impact (CCI) mouse model of TBI: beam walking test; assay type: in vivo; details: for beam walking test average transit time / beam walking test immobility time: 1 week after CCI
Method: as §1
Behavioral assessment for motor functions and coordination: Behavioral tests were performed 1 week and 2 weeks after injury, to assess changes in motor functions and coordination. All tests were performed during the animals' light phase; cages were transported to testing rooms at least 30 min prior to testing.
Beam Walking Test (BWT): A BWT was used to assess CCI-induced deficits in fine motor coordination. Mice have a preference for a darkened enclosed environment, as compared to an open illuminated one. Each animal was placed in darkened goal box for a 2 min habituation and then the trial began from the other (light) end of the beam. The beam was constructed with the following dimensions: 1.2 cm (width)×91 cm (length). The time taken for each animal to traverse the beam to reach the dark goal box and the immobility time spent between the moment when they were initially placed in the beam and when they started walking were documented. Five trials were recorded for each animal before CCI and at 1 and 2 weeks after CCI. The mean times to traverse the beam and the immobility times were calculated, and a plot was generated to evaluate treatment effects; these times were then used for statistical analysis.
In Vivo Model of TBI: TBI studies were conducted in 8-week-old male C57/BL6 mice (25-30 g; n=20), Jackson Laboratory, Bar Harbor, Maine USA. Mice were randomly assigned to four groups prior surgery, CMC+Sham, CMC+TBI, compound 30 (Low dose (LD), 14.78 mg/kg, prepared in 1% CMC in PBS)+TBI, compound 30 (High dose (HD), 29.57 mg/kg)+TBI, and evaluated the effects of compound 30 on TBI. Mice were assessed for gait function and motor coordination, balance function. Animals were subsequently evaluated for cellular changes using histological and immunohistochemistry staining.
Mice were anesthetized with 2.5% tribromoethanol (Avertin: 250 mg/kg; Sigma, St. Louis, MO, USA)) and placed in a mouse stereotaxic frame (Kopf Instruments, Tujunga, CA, USA) and fixed by ear bars and incisor bar. Under sterile procedures, the skin was retracted and a 5-mm square craniectomy was executed over right motor cortex at the posterior corner between the bregma and sagittal sutures. The skull was carefully removed by a drill to avoid damaging the dura underneath. The process of craniectomy proceeded without having the temporalis muscle impaired. The CCI device, Impact One (Leica Biosystems Inc., Buffalo Grove, IL, USA), consists of an electromagnetic impactor that allows alteration of injury severity by controlling contact velocity and the depth of cortical deformation independently. […]

IL-6 = test: LPS model of inflammation in rats: IL-6 in plasma, cortex, hippocampus; assay type: in vivo; details: 29.57 mg/kg i.p.; LPS rat model
Method: Four hours after LPS injection, animals were euthanized, and blood and brain tissue were collected and placed on wet ice. Plasma was quickly separated from blood by centrifuge at 10,000 g. 5 min, 4° C., and brain regions of cortex, hippocampus and the rest of brain were dissected into separate vials on wet ice, then stored at −80° C. Brain tissues were then sonicated in a TRIS based lysis buffer (Mesoscale Discovery) with 3× protease/phosphatase inhibitors (Halt™ Protease and Phosphatase Inhibitor Cocktail, Thermo Fisher Scientific), were then centrifuged at 10,000 g, 10 min, 4° C., and protein concentrations were measured by Bicinchoninic acid assay (BCA, Thermo Fisher Scientific). Rat plasma, cerebral cortical and hippocampal samples were then analyzed by multi-proinflammatory cytokines ELISA (V-PLEX Proinflammatory Panel 2 Rat Kit, Mesoscale Discovery), following the manufacturer's protocol. The processes and dosages of the experiment of drug treatment effects on LPS rat model was made on the basis of our previous studies.

Question: Which results are given for `CC1(C)[C@@H]2CC[C@@]1(C)[C@@H](N1C(=O)c3c(F)c(F)c(F)c(F)c3C1=O)C2` [Compound 14, 4,5,6,7-Tetrafluoro-2-((1R,2S,4R)-1,7,7-trimethylbicyclo[2.2.1]heptan-2-yl) isoindoline-1,3-dione]?
Answer: microglial morphology (ramification index, spanned area, end points, branches, junctions), ipsilateral side (CCI-induced TBI mice [1]; lower and higher dose, 2 weeks after CCI): substantially counteracted these CCI-induced microglial phenotypic measures; IL-5 expression in plasma (in words) (IL-5): reduced IL-5 expression in plasma; beam walking test average transit time (CCI-induced TBI mice [2]; higher dose 32.5 mg/kg i.p.): prevented the CCI-induced behavioral impairment; beam walking test immobility time (CCI-induced TBI mice [2]; higher dose 32.5 mg/kg i.p.): prevented the CCI-induced behavioral impairment; beam walking test average transit time (CCI-induced TBI mice [2]; lower dose 16.25 mg/kg i.p.): but not the average transit time deficit; beam walking test immobility time (CCI-induced TBI mice [2]; lower dose 16.25 mg/kg i.p.): effective in mitigating the immobility measure

Question: Which “IL-5 expression in plasma (in words)” value (IL-5) does the source give for `O=C1c2c(F)c(F)c(F)c(F)c2C(=O)N1C1CC2CCC1C2` (stereo not drawn) [Compound 16, 2-Endo-(bicyclo[2.2.1]heptan-2-yl)-4,5,6,7-tetrafluoroisoindoline-1,3-dione] here?
Answer: reduced IL-5 expression in plasma

Question: What does the source list for `Nc1ccc(F)c2c1C(=S)N(C1CCC(=S)NC1=O)C2=O` (centres unmarked) [Compound 30, 4-amino-7-fluoro-2-(2-oxo-6-thioxopiperidin-3-yl)-3-thioxoisoindolin-1-one]?
Answer: number of astrocytes (GFAP) in cortex (CCI-induced TBI mice [1]; 14.78, 29.57 mg/kg, 2 weeks after TBI): significantly decreased the number of astrocytes; number of branches, junctions, endpoints of microglial processes (CCI-induced TBI mice [1]; 14.78, 29.57 mg/kg, ipsilateral cortex): significantly rescue the morphological changes of microglia; number of microglia induced by TBI (CCI-induced TBI mice [1]; cortex): subtle reduction, but not significant; microglial ramification index and spanned area (CCI-induced TBI mice [1]; ipsilateral cortex, 2 weeks after TBI): significantly ameliorated the morphological alteration of microglia; IL-6 in plasma, cortex, and hippocampus (IL-6): significantly reduce; beam walking test average time (CCI-induced TBI mice [2]; high dose 29.57 mg/kg): reached significant different; beam walking test, average time and contralateral foot falls (trend) (CCI-induced TBI mice [2]; treated groups 14.78, 29.57 mg/kg): clear reducing trends
